Laboratory results taken from PubChem BioAssay (NCI).
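Test compounds were applied to cells in 96-well plates for 48 hours at 5 doses. The concentration for 50% growth inhibition is given as GI50. TGI: total growth inhibition.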

Columns and labels:
Test in all cases: DTP human tumour cell line panel, 48 h
[1] = tested on: CCRF-CEM leukemia
[2] = tested on: HL-60(TB) leukemia
[3] = tested on: DU-145 prostate
[4] = tested on: HT29 colon
[5] = tested on: MCF7 breast
[6] = tested on: U251 CNS
[7] = tested on: NCI-H522 lung
[8] = tested on: SW-620 colon
[9] = tested on: RPMI-8226 leukemia
[10] = tested on: OVCAR-4 ovarian

## COc1ccc(NS(=O)c2ccc(-c3ccccc3)cc2)cc1 (configuration not stated)
[1]
  TGI: > 100 µM
[2]
  TGI: > 100 µM
[3]
  TGI: > 100 µM
[4]
  TGI: > 100 µM
[5]
  TGI: > 100 µM
[6]
  TGI: > 100 µM
[7]
  TGI: > 100 µM
[8]
  TGI: > 100 µM
[9]
  TGI: > 100 µM

## CC1SC(c2ccccc2)N(Nc2c3ccccc3nc3ccccc23)C1=O (configuration not stated)
[1]
  TGI: > 100 µM
[10]
  TGI: > 100 µM
[4]
  TGI: > 100 µM
[6]
  TGI: > 100 µM
[7]
  TGI: > 100 µM
[8]
  TGI: > 100 µM
[9]
  TGI: > 100 µM

## COc1ccc(OC)c([N+](=O)[O-])c1-c1nc2sccn2c1/C=N/N=C(N)N
[1]
  TGI: > 100 µM
[2]
  TGI: > 100 µM
[3]
  TGI: > 100 µM
[4]
  TGI: > 100 µM
[5]
  TGI: 54.2 µM
[6]
  TGI: > 100 µM
[7]
  TGI: > 100 µM
[8]
  TGI: > 100 µM
[9]
  TGI: > 100 µM

## COc1cc2cc[n+](C)c(Cc3ccccc3)c2cc1OC
[1]
  TGI: > 100 µM
[10]
  TGI: > 100 µM
[4]
  TGI: > 100 µM
[6]
  TGI: > 100 µM
[7]
  TGI: > 100 µM
[8]
  TGI: > 100 µM
[9]
  TGI: > 100 µM

## CN1CCN(c2ccc(-c3ccc4ncc(C#N)c(Nc5ccc(F)c(Cl)c5)c4c3)cc2)CC1
[1]
  GI50: 2.2 µM
  TGI: 6.52 µM
[2]
  GI50: 1.68 µM
  TGI: 4.45 µM
[3]
  GI50: 0.872 µM
  TGI: 4.11 µM
[10]
  GI50: 3.18 µM
  TGI: 25.6 µM
[4]
  GI50: 2.33 µM
  TGI: 8.32 µM
[5]
  GI50: 3.18 µM
  TGI: 14.9 µM
[6]
  GI50: 2.3 µM
  TGI: 7.47 µM
[7]
  GI50: 1.15 µM
  TGI: 4.02 µM
[8]
  GI50: 2.81 µM
  TGI: 14.5 µM
[9]
  GI50: 1.92 µM
  TGI: 5.5 µM

## NCC[Se][Se]CCN
[1]
  TGI: 45.6 µM
[2]
  TGI: 7.57 µM
[3]
  TGI: 26.4 µM
[10]
  TGI: 32.1 µM
[4]
  TGI: 26.9 µM
[5]
  TGI: 33.1 µM
[6]
  TGI: 24.1 µM
[7]
  TGI: 25.6 µM
[8]
  TGI: 48.9 µM
[9]
  TGI: > 100 µM

## COc1ccc(-c2cc(-c3ccccc3)n(C3OCC(OC(C)=O)C(OC(C)=O)C3OC(C)=O)c(=S)c2C#N)cc1 (configuration not stated)
[1]
  TGI: > 100 µM
[2]
  TGI: > 100 µM
[3]
  TGI: > 100 µM
[10]
  TGI: > 100 µM
[4]
  TGI: > 100 µM
[5]
  TGI: > 100 µM
[6]
  TGI: > 100 µM
[7]
  TGI: > 100 µM
[8]
  TGI: > 100 µM
[9]
  TGI: > 100 µM

## Cc1nc2ccccc2c(=O)n1-c1n[nH]c2ccccc12
[1]
  TGI: > 100 µM
[3]
  TGI: > 100 µM
[10]
  TGI: > 100 µM
[4]
  TGI: > 100 µM
[5]
  TGI: > 100 µM
[6]
  TGI: > 100 µM
[7]
  TGI: > 100 µM
[8]
  TGI: > 100 µM
[9]
  TGI: > 100 µM

## O=C(N/C(=C\c1ccccc1[N+](=O)[O-])c1nc2ccccc2[nH]1)c1ccccc1
[1]
  TGI: > 100 µM
[10]
  TGI: > 100 µM
[4]
  TGI: > 100 µM
[6]
  TGI: > 100 µM
[7]
  TGI: > 100 µM
[8]
  TGI: > 100 µM

## O=[N+]([O-])c1ccc(N=Nc2c(O)ccc3cc(S(=O)(=O)O)ccc23)cc1
[1]
  TGI: > 100 µM
[3]
  TGI: > 100 µM
[10]
  TGI: > 100 µM
[4]
  TGI: > 100 µM
[6]
  TGI: > 100 µM
[7]
  TGI: > 100 µM
[8]
  TGI: > 100 µM
[9]
  TGI: > 100 µM

## CCC(CS(=O)(=O)O)[N+](=O)[O-] (configuration not stated)
[1]
  TGI: > 100 µM
[2]
  TGI: > 100 µM
[3]
  TGI: > 100 µM
[10]
  TGI: > 100 µM
[4]
  TGI: > 100 µM
[5]
  TGI: > 100 µM
[6]
  TGI: > 100 µM
[7]
  TGI: > 100 µM
[8]
  TGI: > 100 µM
[9]
  TGI: > 100 µM

## O=C(CCCn1c(=O)c2sc3ccccc3c2n2nnc(-c3ccccc3)c12)NCCc1cnc[nH]1
[2]
  GI50: 1.41 µM
  TGI: 6.36 µM
[3]
  GI50: 1.55 µM
  TGI: 2.98 µM
[4]
  GI50: 1.36 µM
  TGI: 3.16 µM
[5]
  GI50: 1.45 µM
  TGI: 3.08 µM
[6]
  GI50: 1.06 µM
  TGI: 2.24 µM
[7]
  GI50: 1.06 µM
  TGI: 11.7 µM

## CC(CN(C)C)C(=O)c1ccccc1C(=O)O (configuration not stated)
[1]
  TGI: 30.3 µM
[2]
  TGI: 49.4 µM
[3]
  TGI: > 100 µM
[10]
  TGI: > 100 µM
[4]
  TGI: > 100 µM
[5]
  TGI: > 100 µM
[6]
  TGI: 38.2 µM
[7]
  TGI: 36.6 µM
[8]
  TGI: > 100 µM
[9]
  TGI: 78 µM

## Cc1nc(Cl)c(Cl)c(Cl)n1
[1]
  TGI: 0.0333 µM
[2]
  TGI: 0.0553 µM
[3]
  TGI: 9.24 µM
[10]
  TGI: 0.097 µM
[4]
  TGI: 0.442 µM
[5]
  TGI: 1.91 µM
[6]
  TGI: 4.07 µM
[7]
  TGI: 3.88 µM
[8]
  TGI: 0.149 µM
[9]
  TGI: 0.203 µM

## C=C(C)[C@@H]1CC[C@]2(C)CC[C@]3(C)[C@H](CC[C@@H]4[C@@]5(C)CC[C@H](OC(=O)c6ccccc6)C(C)(C)[C@@H]5CC[C@]43C)[C@@H]12
[1]
  TGI: > 100 µM
[2]
  TGI: > 100 µM
[3]
  TGI: > 100 µM
[10]
  TGI: > 100 µM
[4]
  TGI: > 100 µM
[5]
  TGI: > 100 µM
[6]
  TGI: > 100 µM
[7]
  TGI: > 100 µM
[8]
  TGI: > 100 µM
[9]
  TGI: > 100 µM

## Cn1c(NN)nc(-c2ccc([N+](=O)[O-])cc2)c(C#N)c1=O
[1]
  TGI: > 100 µM
[2]
  TGI: > 100 µM
[3]
  TGI: 30 µM
[10]
  TGI: 30.8 µM
[4]
  TGI: 28.7 µM
[5]
  TGI: 31.9 µM
[6]
  TGI: 30.8 µM
[7]
  TGI: 29.9 µM
[8]
  TGI: 25.2 µM
[9]
  TGI: > 100 µM

## CNC(C)Cc1ccccc1O (configuration not stated)
[1]
  TGI: > 100 µM
[2]
  TGI: > 100 µM
[10]
  TGI: > 100 µM
[4]
  TGI: > 100 µM
[6]
  TGI: > 100 µM
[7]
  TGI: > 100 µM
[8]
  TGI: > 100 µM
[9]
  TGI: > 100 µM

## Nc1ccc2c(c1)C1=NNC(=O)CC1C2 (configuration not stated)
[1]
  TGI: > 100 µM
[2]
  TGI: > 100 µM
[10]
  TGI: > 100 µM
[4]
  TGI: > 100 µM
[5]
  TGI: > 31.6 µM
[6]
  TGI: > 100 µM
[7]
  TGI: > 100 µM
[8]
  TGI: > 100 µM
[9]
  TGI: > 100 µM

## COc1cc(-c2n/c(=C\c3c(O)[nH]c4ccc(Cl)cc34)cc3c2=Nc2ccccc2-3)cc(OC)c1OC
[1]
  GI50: 0.849 µM
  TGI: 37.3 µM
[2]
  GI50: 10.7 µM
  TGI: 38.1 µM
[3]
  GI50: 0.655 µM
  TGI: 2.59 µM
[10]
  GI50: 0.423 µM
  TGI: 1.78 µM
[4]
  GI50: 1.04 µM
  TGI: 2.96 µM
[5]
  GI50: 0.316 µM
  TGI: 1.38 µM
[7]
  GI50: 1.79 µM
  TGI: 4.09 µM
[8]
  GI50: 0.366 µM
  TGI: 1.6 µM
[9]
  GI50: 2.68 µM
  TGI: 19.7 µM
